In patent US10780090B2, “Heteroaryl compounds useful as inhibitors of SUMO activating enzyme” (Millennium Pharmaceuticals, Inc., priority 2014, dated 2020):

Biological target: recombinant human SAE enzyme (Homo sapiens (Human), UniProt Q9UBT2)
Assay: SAE HTRF enzyme assay
Assay type: biochemical
Outline: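 Human SAE (0.11 nM) with 0.5 μM ATP, 0.125 μM Sumo-Flag and 0.01 μM Ubc9-GST in HEPES pH 7.5, 5 mM MgCl2, 250 μM GSH; 105 min at 24 °C. Stopped with EDTA; HTRF read after 2 h with Eu-anti-Flag and APC-anti-GST. Percent inhibition or IC50 reported.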

[1] = SAE inhibition at compound concentration 0.111 μM
[2] = SAE inhibition, class symbols, legend in nM

recombinant human SAE enzyme, sequence (Q9UBT2 whole entry): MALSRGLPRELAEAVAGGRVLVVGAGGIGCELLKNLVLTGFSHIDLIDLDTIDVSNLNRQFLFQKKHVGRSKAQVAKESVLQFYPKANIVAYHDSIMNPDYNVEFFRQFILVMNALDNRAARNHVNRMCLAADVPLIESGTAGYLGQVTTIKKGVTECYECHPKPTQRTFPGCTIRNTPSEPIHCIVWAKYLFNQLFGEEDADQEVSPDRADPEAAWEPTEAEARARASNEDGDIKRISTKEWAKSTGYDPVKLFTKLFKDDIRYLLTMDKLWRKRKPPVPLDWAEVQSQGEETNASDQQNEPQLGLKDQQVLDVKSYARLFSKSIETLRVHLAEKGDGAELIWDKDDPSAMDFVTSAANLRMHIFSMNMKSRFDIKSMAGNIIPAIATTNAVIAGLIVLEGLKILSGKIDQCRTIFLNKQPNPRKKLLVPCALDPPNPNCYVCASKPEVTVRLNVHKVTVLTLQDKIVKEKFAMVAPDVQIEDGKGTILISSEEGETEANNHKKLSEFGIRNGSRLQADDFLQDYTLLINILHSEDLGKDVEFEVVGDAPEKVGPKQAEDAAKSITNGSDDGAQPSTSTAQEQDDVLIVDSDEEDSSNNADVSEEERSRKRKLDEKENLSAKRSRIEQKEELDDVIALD
recombinant human SAE enzyme, sequence (Q9UBE0 whole entry partner): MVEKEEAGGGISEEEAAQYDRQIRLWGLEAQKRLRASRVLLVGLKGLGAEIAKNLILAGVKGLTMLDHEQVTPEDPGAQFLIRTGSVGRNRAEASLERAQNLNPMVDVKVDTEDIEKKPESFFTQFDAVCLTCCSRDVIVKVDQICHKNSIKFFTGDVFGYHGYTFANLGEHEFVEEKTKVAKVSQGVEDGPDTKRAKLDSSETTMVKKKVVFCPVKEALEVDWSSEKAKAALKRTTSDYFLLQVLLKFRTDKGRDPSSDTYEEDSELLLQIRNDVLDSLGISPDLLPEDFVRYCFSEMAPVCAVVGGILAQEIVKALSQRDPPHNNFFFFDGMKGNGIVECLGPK

SMILES | Percent Inhibition [1] | IC50 [2] | Percent Inhibition (Concentration 0.111 μM) | IC50 (class symbols A/B/C) | inhibition at 0.111 µM (Concentration 0.111 μM, read-out: Percent Inhibition)
Cc1ccc2c(c1)[C@H](c1cc(C(=O)c3cncnc3N[C@@H]3C[C@H](COS(N)(=O)=O)[C@@H](O)C3)sc1C)OCC2 (mixture of isomers) [I-347, [(1R,2S,4R)-2-hydroxy-4-{[5-({5-methyl-4-[(1R)-7-methyl-3,4-dihydro-1H-isochromen-1-yl]-2-thienyl}carbonyl)pyrimidin-4-yl]amino}cyclopentyl]methyl sulfamate and [(1R,2S,4R)-2-hydroxy-4-{[5-({5-methyl-4-[(1S)-7-methyl-3,4-dihydro-1H-isochromen-1-yl]-2-thienyl}carbonyl)pyrimidin-4-yl]amino}cyclopentyl]methyl sulfamate] | 97% | < 10 nM | – | – | –
Cc1nc2n(c1C)CCO[C@@H]2c1cc(C(=O)c2cncnc2N[C@@H]2C[C@H](COS(N)(=O)=O)[C@@H](O)C2)sc1C (single isomer, unassigned) [I-356a, [(1R,2S,4R)-4-{[5-({4-[(8R)-2,3-dimethyl-5,6-dihydro-8H-imidazo[2,1-c][1,4]oxazin-8-yl]-5-methyl-2-thienyl}carbonyl)pyrimidin-4-yl]amino}-2-hydroxycyclopentyl]methyl sulfamate or [(1R,2S,4R)-4-{[5-({4-[(8S)-2,3-dimethyl-5,6-dihydro-8H-imidazo[2,1-c][1,4]oxazin-8-yl]-5-methyl-2-thienyl}carbonyl)pyrimidin-4-yl]amino}-2-hydroxycyclopentyl]methyl sulfamate] | 52% | 10 to 100 nM | – | – | –
NS(=O)(=O)OC[C@H]1C[C@@H](Nc2ncncc2C(=O)c2cc([C@@H]3OCCc4c(Cl)cccc43)cs2)C[C@@H]1O (single isomer, unassigned) [I-301a, [(1R,2S,4R)-4-{[5-({4-[(1R)-5-chloro-3,4-dihydro-1H-isochromen-1-yl]-2-thienyl}carbonyl)pyrimidin-4-yl]amino}-2-hydroxycyclopentyl]methyl sulfamate or [(1R,2S,4R)-4-{[5-({4-[(1S)-5-chloro-3,4-dihydro-1H-isochromen-1-yl]-2-thienyl}carbonyl)pyrimidin-4-yl]amino}-2-hydroxycyclopentyl]methyl sulfamate] | 40% | 100 to 1000 nM | – | – | –
Cc1ccc2c(n1)C(c1cc(C(=O)c3cncnc3N[C@@H]3C[C@H](COS(N)(=O)=O)[C@@H](O)C3)sc1C)OCC2 (single isomer, unassigned) [I-291a, [(1R,2S,4R)-2-hydroxy-4-{[5-({5-methyl-4-[(8S)-2-methyl-5,8-dihydro-6H-pyrano[3,4-b]pyridin-8-yl]-2-thienyl}carbonyl)pyrimidin-4-yl]amino}cyclopentyl]methyl sulfamate or [(1R,2S,4R)-2-hydroxy-4-{[5-({5-methyl-4-[(8R)-2-methyl-5,8-dihydro-6H-pyrano[3,4-b]pyridin-8-yl]-2-thienyl}carbonyl)pyrimidin-4-yl]amino}cyclopentyl]methyl sulfamate] | 17% | 100 to 1000 nM | – | – | –
NS(=O)(=O)OC[C@H]1C[C@@H](Nc2ncncc2C(=O)c2cc([C@@H]3OCCc4ccc(Br)cc43)cs2)C[C@@H]1O (single isomer, unassigned) [I-268a, [(1R,2S,4R)-4-{[5-({4-[(1R)-7-bromo-3,4-dihydro-1H-isochromen-1-yl]-2-thienyl}carbonyl)pyrimidin-4-yl]amino}-2-hydroxycyclopentyl]methyl sulfamate or [(1R,2S,4R)-4-{[5-({4-[(1S)-7-bromo-3,4-dihydro-1H-isochromen-1-yl]-2-thienyl}carbonyl)pyrimidin-4-yl]amino}-2-hydroxycyclopentyl]methyl sulfamate] | – | – | 50 | 100 to 1000 nM | –
Cc1sc(C(=O)c2cncnc2N[C@@H]2C[C@H](COS(N)(=O)=O)[C@@H](O)C2)cc1[C@@H]1OCCc2sc(C(F)(F)F)nc21 (mixture of isomers) [I-315, [(1R,2S,4R)-2-hydroxy-4-{[5-({5-methyl-4-[(4S)-2-(trifluoromethyl)-6,7-dihydro-4H-pyrano[3,4-d][1,3]thiazol-4-yl]-2-thienyl}carbonyl)pyrimidin-4-yl]amino}cyclopentyl]methyl sulfamate and [(1R,2S,4R)-2-hydroxy-4-{[5-({5-methyl-4-[(4R)-2-(trifluoromethyl)-6,7-dihydro-4H-pyrano[3,4-d][1,3]thiazol-4-yl]-2-thienyl}carbonyl)pyrimidin-4-yl]amino}cyclopentyl]methyl sulfamate] | 97% | < 10 nM | – | – | –
C[C@](O)(c1ccccc1)c1coc(C(=O)c2cncnc2N[C@@H]2C[C@H](COS(N)(=O)=O)[C@@H](O)C2)c1 (single isomer, unassigned) [I-58b, {(1R,2S,4R)-2-hydroxy-4-[(5-{4-[(1S)-1-hydroxy-1-phenylethyl]-2-furoyl}pyrimidin-4-yl)amino]cyclopentyl}methyl sulfamate or {(1R,2S,4R)-2-hydroxy-4-[(5-{4-[(1R)-1-hydroxy-1-phenylethyl]-2-furoyl}pyrimidin-4-yl)amino]cyclopentyl}methyl sulfamate] | – | – | 100 | < 10 nM | –
NC(c1cccc(Br)c1)c1cc(C(=O)c2cncnc2NC2CC(O)C(COS(N)(=O)=O)C2)sc1Cl (mixture of isomers) [I-22, [(1R,2S,4R)-4-{[5-({4-[(R)-amino(3-bromophenyl)methyl]-5-chloro-2-thienyl}carbonyl)pyrimidin-4-yl]amino}-2-hydroxycyclopentyl]methyl sulfamate and [(1R,2S,4R)-4-{[5-({4-[(S)-amino(3-bromophenyl)methyl]-5-chloro-2-thienyl}carbonyl)pyrimidin-4-yl]amino}-2-hydroxycyclopentyl]methyl sulfamate] | – | – | 99 | < 10 nM | –
Cc1sc(C(=O)c2cncnc2N[C@@H]2C[C@H](COS(N)(=O)=O)[C@@H](O)C2)cc1[C@H]1OCCc2ccc(Cl)cc21 [I-257a, [(1R,2S,4R)-4-{[5-({4-[(1S)-7-chloro-3,4-dihydro-1H-isochromen-1-yl]-5-methyl-2-thienyl}carbonyl)pyrimidin-4-yl]amino}-2-hydroxycyclopentyl]methyl sulfamate] | – | – | – | 10 to 100 nM | 74%
Cc1sc(C(=O)c2cncnc2N[C@@H]2C[C@H](COS(N)(=O)=O)[C@@H](O)C2)cc1[C@@H]1OCCc2ccc(C(F)(F)F)cc21 (single isomer, unassigned) [I-258a, [(1R,2S,4R)-2-hydroxy-4-{[5-({5-methyl-4-[(1R)-7-(trifluoromethyl)-3,4-dihydro-1H-isochromen-1-yl]-2-thienyl}carbonyl)pyrimidin-4-yl]amino}cyclopentyl]methyl sulfamate or [(1R,2S,4R)-2-hydroxy-4-{[5-({5-methyl-4-[(1S)-7-(trifluoromethyl)-3,4-dihydro-1H-isochromen-1-yl]-2-thienyl}carbonyl)pyrimidin-4-yl]amino}cyclopentyl]methyl sulfamate] | – | – | 98 | < 10 nM | –
NS(=O)(=O)OC[C@H]1C[C@@H](Nc2ncncc2C(=O)c2cc([C@@H]3NCCc4ccc(Cl)cc43)c(Cl)o2)C[C@@H]1O (single isomer, unassigned) [I-299b, {(1R,2S,4R)-4-[(5-{5-chloro-4-[(1R)-7-chloro-1,2,3,4-tetrahydroisoquinolin-1-yl]-2-furoyl}pyrimidin-4-yl)amino]-2-hydroxycyclopentyl}methyl sulfamate or {(1R,2S,4R)-4-[(5-{5-chloro-4-[(1S)-7-chloro-1,2,3,4-tetrahydroisoquinolin-1-yl]-2-furoyl}pyrimidin-4-yl)amino]-2-hydroxycyclopentyl}methyl sulfamate] | 93% | < 10 nM | – | – | –
Cc1sc(C(=O)c2cncnc2N[C@@H]2C[C@H](COS(N)(=O)=O)[C@@H](O)C2)cc1[C@@H]1OCCc2ccc(C3CC3)cc21 (mixture of isomers) [I-277, [(1R,2S,4R)-4-{[5-({4-[(1R)-7-cyclopropyl-3,4-dihydro-1H-isochromen-1-yl]-5-methyl-2-thienyl}carbonyl)pyrimidin-4-yl]amino}-2-hydroxycyclopentyl]methyl sulfamate and [(1R,2S,4R)-4-{[5-({4-[(1S)-7-cyclopropyl-3,4-dihydro-1H-isochromen-1-yl]-5-methyl-2-thienyl}carbonyl)pyrimidin-4-yl]amino}-2-hydroxycyclopentyl]methyl sulfamate] | – | – | 99 | < 10 nM | –
NS(=O)(=O)OC[C@H]1C[C@@H](Nc2ncncc2C(=O)c2cc([C@H]3NCCc4ccccc43)c(Cl)s2)C[C@@H]1O (single isomer, unassigned) [I-279a, [(1R,2S,4R)-4-{[5-({5-chloro-4-[(1S)-1,2,3,4-tetrahydroisoquinolin-1-yl]-2-thienyl}carbonyl)pyrimidin-4-yl]amino}-2-hydroxycyclopentyl]methyl sulfamate or [(1R,2S,4R)-4-{[5-({5-chloro-4-[(1R)-1,2,3,4-tetrahydroisoquinolin-1-yl]-2-thienyl}carbonyl)pyrimidin-4-yl]amino}-2-hydroxycyclopentyl]methyl sulfamate] | – | – | 100 | < 10 nM | –
NS(=O)(=O)OC[C@H]1C[C@@H](Nc2ncncc2C(=O)c2cc([C@@H]3SCCc4ccc(Cl)cc43)cs2)C[C@@H]1O.NS(=O)(=O)OC[C@H]1C[C@@H](Nc2ncncc2C(=O)c2cc([C@H]3SCCc4ccc(Cl)cc43)cs2)C[C@@H]1O (mixture of isomers) [I-320, [(1R,2S,4R)-4-{[5-({4-[(1R)-7-chloro-3,4-dihydro-1H-isothiochromen-1-yl]-2-thienyl}carbonyl)pyrimidin-4-yl]amino}-2-hydroxycyclopentyl]methyl sulfamate and [(1R,2S,4R)-4-{[5-({4-[(1S)-7-chloro-3,4-dihydro-1H-isothiochromen-1-yl]-2-thienyl}carbonyl)pyrimidin-4-yl]amino}-2-hydroxycyclopentyl]methyl sulfamate] | 92% | 10 to 100 nM | – | – | –
